From PubChem BioAssay AID463199 (Broad Institute, 2010) come the findings set out here.

This assay deals with S. cerevisiae Burl-1 ts mutant growth, BacTiter-Glo, 38.5C 24 h. Put plainly: growth induction of Burl-1 ts yeast mutant, dose response, counter-screen for SUMOylation pathway inhibitor project, whole organism, S. cerevisiae, luminescence (AID 463199).

Active and inactive are the calls of the source.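 Rule for the calls: active = AC50, the dose giving half-maximal effect, exceeds a fixed cutoff for a compound that rescues yeast growth under heat; inactive = the rest, inconclusive results apart.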

As for `CC(C)(C)c1cc(NCCCn2ccnc2)n2ncc(-c3ccc(Cl)cc3)c2n1`, the AC50 was > 42 µM (inactive).

Consider `CCCNC(=O)COC(=O)CCC(=O)c1cccs1`, for which the AC50 is > 42 µM (inactive).

On to `Cc1ccc(Nc2cc(C)nc3c(C)ccc([N+](=O)[O-])c23)cc1`, for which the AC50 was > 21 µM (inactive).

Consider `Cc1ccccc1Nc1cc(=O)oc2ccccc12`, for which the AC50 was > 42 µM (inactive).

As for `CCOC(=O)C1CCN(C(=O)c2sccc2Cl)CC1`, the AC50 was > 42 µM (inactive).

Turning to `COc1ccc(CN2C(=O)c3c(c(C)n(C)c3C)C2C(=O)NC2CCC(C)CC2)cc1` (centres undefined), the AC50 was > 42 µM (inactive).

In the case of `O=C1c2cc(N3CCCC3)c([N+](=O)[O-])cc2C(=O)N1c1ccccc1`, the AC50 was > 42 µM (inactive).

Take `CCOc1ccc(NC(=O)CN(C)C(=O)c2ccc(OCc3ccccc3)c(OC)c2)cc1OCC`: the AC50 is > 42 µM (inactive).

Regarding `CC(=O)c1ccccc1C(=O)N1CCCC(N2CCN(Cc3ccc4c(c3)OCO4)CC2)C1` (centres undefined), the AC50 was > 42 µM (inactive).

With `CC(Cc1ccc(O)c(O)c1)C(C)Cc1ccc(O)c(O)c1` (centres undefined), the AC50 is > 42 µM (inactive).

For the molecule `COc1ccc2cc(C#N)c(Nc3cccc(F)c3)nc2c1`, the AC50 is > 42 µM (inactive).

In the case of `Clc1ccc(CNCc2cccs2)cc1Cl`, the AC50 is > 42 µM (inactive).

For `Cc1ccc(Cn2c(NCCc3ccccc3)nc3c2c(=O)n(C)c(=O)n3C)cc1`, the AC50 was > 42 µM (inactive).

As to `Cc1c(N=Cc2cc(Br)cc(Br)c2O)cccc1C(=O)O`, the AC50 was > 42 µM (inactive).

In the case of `COc1ccccc1-c1sc2ccccc2c1-c1ccc2c(c1)OCO2`, the AC50 is > 42 µM (inactive).

Turning to `C=CCNC(=O)NC(=O)COC(=O)/C(C#N)=C/c1cc(C)n(CC(C)C)c1C`, the AC50 was > 42 µM (inactive).

Regarding `COc1ccccc1NC(=O)c1ccc(-n2ccnc2)c([N+](=O)[O-])c1`, the AC50 was > 42 µM (inactive).

Take `O=c1c2ccccc2ncn1-c1ccc(Cl)cc1Cl`: the AC50 is > 42 µM (inactive).

For `COc1ccc(-c2nc(NC(=O)CCNC(=O)c3ccco3)sc2C)cc1`, the AC50 was > 42 µM (inactive).

`COc1ccc(OCC(=O)Nc2ccc(C)cc2)cc1`: the AC50 is > 42 µM (inactive).

As to `Cc1cc(Br)ccc1NC(=O)c1cnc(N2CCN(c3ccccn3)CC2)c2ccccc12`, the AC50 is > 42 µM (inactive).

In the case of `CCN(C(=O)CCS(=O)(=O)c1ccc2c(c1)oc(=O)n2C)c1ccc(OC)cc1`, the AC50 is > 42 µM (inactive).

For the molecule `COC(C(=O)Nc1ccnn1C1CCN(Cc2cnn(C)c2)CC1)c1ccccc1` (centres undefined), the AC50 was > 42 µM (inactive).

In the case of `CSc1nncc(/C(C)=N\Nc2cccc(C)c2)n1`, the AC50 was > 42 µM (inactive).

Take `CCCCc1ccc(NC(=S)NCc2cccs2)cc1`: the AC50 is > 42 µM (inactive).

In the case of `COc1ccccc1N1CCN(C(=O)c2ccc(-c3ccccc3)cc2)CC1`, the AC50 is > 42 µM (inactive).

On to `COc1ccc2c(c1)OC[C@H]1[C@H]2N2C(=O)c3cc(C)ccc3NC(=O)[C@@]2(C)[C@H]1c1ccccc1`, for which the AC50 is > 42 µM (inactive).

`COc1ccc(C2=Nn3c(nnc3-c3ccco3)SC2)cc1`: the AC50 was > 42 µM (inactive).

Take `CC(NC(=O)C12CC3CC(CC(O)(C3)C1)C2)c1ccccc1` (centres undefined): the AC50 is > 42 µM (inactive).

For the molecule `Cc1c(C2(O)CCCCC2)[nH]c2ccc(C#N)cc12`, the AC50 was > 42 µM (inactive).

Regarding `Fc1ccc(-c2nnc3ccc(N4CCCC4)nn23)cc1`, the AC50 is > 42 µM (inactive).

`O=[N+]([O-])c1ccc(N/N=C/c2cccc(O)c2)cc1`: the AC50 is > 42 µM (inactive).

For `CCC1=Nc2cc(C(=O)NCc3ccco3)ccc2Sc2ccccc21`, the AC50 was > 42 µM (inactive).

Consider `COc1ccccc1CNc1nc(SC)ncc1CO`, for which the AC50 was > 42 µM (inactive).

As for `O=C(CCSc1nnnn1-c1ccccc1)N1CCOCC1`, the AC50 was > 42 µM (inactive).

As for `N=c1ncn(CC(O)CO)c2nc(N3CCOCC3)[nH]c12` (centres undefined), the AC50 is > 42 µM (inactive).

With `COc1ccccc1CC(=O)N1CCN(S(=O)(=O)c2ccccc2)CC1`, the AC50 is > 42 µM (inactive).

For `O=C(CCC1CCCN(C(=O)Cc2cccc(F)c2)C1)N1CCN(c2ccccn2)CC1` (centres undefined), the AC50 was > 42 µM (inactive).

`CCOC(=O)c1cc(C#N)c(Oc2ccccc2OC)nc1-c1ccccc1`: the AC50 is > 42 µM (inactive).

As for `CN(C(=O)CSc1nnc(-c2cccc(F)c2)n1N)C1CCS(=O)(=O)C1` (centres undefined), the AC50 was > 42 µM (inactive).

As to `CCOC(=O)NC1(Nc2ccc(C)cc2)Oc2ccccc2O1`, the AC50 was > 42 µM (inactive).

With `O=C(c1cc2c(ccc3ccccc32)oc1=O)N1CCCC1`, the AC50 was > 42 µM (inactive).

With `C=CCn1c(CCC)nc2ccccc21`, the AC50 was > 42 µM (inactive).

With `O=C1CN(C(=O)COC(=O)c2ccccc2NCc2ccco2)c2ccccc2N1`, the AC50 was > 42 µM (inactive).

Consider `O=C(COC(=O)COc1ccccc1Cl)Nc1ccccc1OC(F)F`, for which the AC50 is > 42 µM (inactive).

`OC[C@@H](O)CCl`: the AC50 is > 42 µM (inactive).

Take `COc1ccccc1CCNC(=O)/C(=C/c1cccnc1)NC(=O)c1ccccc1`: the AC50 was > 42 µM (inactive).

For `Cc1cc(C#Cc2c(-c3ccccc3)n(C)c3ccccc23)ccc1F`, the AC50 was > 42 µM (inactive).

For `CCCc1nn2c(=O)cc(CSCC(=O)Nc3ccc(OC)cc3)nc2s1`, the AC50 is > 42 µM (inactive).

Regarding `O=C(NNS(=O)(=O)c1c(F)cc(F)c(Cl)c1F)C12CC3CC(CC(C3)C1)C2`, the AC50 is > 42 µM (inactive).

On to `CCOC(=O)c1oc2cc(OC(C)=O)ccc2c(=O)c1-c1ccc(OC)c(OC)c1`, for which the AC50 is > 42 µM (inactive).

Take `Cc1ccc(-c2cc(C(=O)O)c3ccccc3n2)s1`: the AC50 is > 42 µM (inactive).

With `COC(=O)c1cccc(NC(=O)c2cccnc2)c1`, the AC50 is > 42 µM (inactive).

For `O=C(C1CCN(S(=O)(=O)N2CCC3(CC2)OCCO3)CC1)N1CCC(Cc2ccccc2)CC1`, the AC50 was > 42 µM (inactive).

With `Cc1ccc(-c2csc(NC(=O)CSc3nc(C)cs3)n2)cc1`, the AC50 is > 42 µM (inactive).

In the case of `Cc1ccccc1-c1nnnn1C1CCS(=O)(=O)C1` (centres undefined), the AC50 was > 42 µM (inactive).

Consider `Cc1cc(C)c(S(=O)(=O)c2cccc(C)c2C)c(=O)[nH]1`, for which the AC50 is > 42 µM (inactive).

Turning to `O=C(CS(=O)c1ccc(C(F)(F)F)cc1[N+](=O)[O-])Oc1ccc(Cl)cc1` (centres undefined), the AC50 was > 42 µM (inactive).

As to `CCN1CCCC1CN(Cc1cc2ccc(C)cc2[nH]c1=O)C(=S)Nc1ccccc1C(=O)OC` (centres undefined), the AC50 was > 42 µM (inactive).

`Cn1c(-c2ccc3c(c2)OCO3)cnc1NC(=O)CCC(=O)NCCc1ccccc1`: the AC50 was > 42 µM (inactive).

As for `CCOC(=O)c1cnc2c(OC)cccc2c1N1CCN(c2ccccc2OC)CC1`, the AC50 was > 42 µM (inactive).

Regarding `O=C(COC(=O)C1COc2ccccc2O1)NC1CCS(=O)(=O)C1` (centres undefined), the AC50 was > 42 µM (inactive).

On to `COc1ccc(S(=O)(=O)NCC(=O)N(CC(=O)NCC2CCCO2)c2ccccc2C)cc1` (centres undefined), for which the AC50 is > 42 µM (inactive).

For the molecule `CC(C)c1ccc2c(c1)CCC1C(C)(CN)CCCC21C` (centres undefined), the AC50 was > 42 µM (inactive).

For `CCOC(=O)CN1NC2(CCC(C(C)(C)C)CC2)NC1=S` (centres undefined), the AC50 is > 42 µM (inactive).

As for `CCCCCOC(=O)C1=C(C)N(C)C(=O)NC1c1cc(Br)c(O)c(OC)c1` (centres undefined), the AC50 is > 42 µM (inactive).

In the case of `COc1ccc(C(=O)OCC(=O)c2ccc(C)c(S(=O)(=O)N3CCOCC3)c2)cc1OC`, the AC50 is > 42 µM (inactive).

In the case of `Cc1ccn2cc(-c3cnoc3C)nc2c1`, the AC50 is > 42 µM (inactive).

As for `CCOC(=O)c1cc2sc(C)cc2n1CC(=O)Nc1ccc2c(c1)OCCO2`, the AC50 is > 42 µM (inactive).

In the case of `Cc1ccc2c(c1)C(O)(CC(=O)c1cccnc1)C(=O)N2` (centres undefined), the AC50 was > 42 µM (inactive).

Take `O=c1cc(COc2ncnc3ccccc23)nc2sccn12`: the AC50 was > 42 µM (inactive).

As for `Cc1ccc(NC(=O)Cn2sc3nc(C)cc(C)c3c2=O)c(Cl)c1`, the AC50 was > 42 µM (inactive).

On to `Fc1cccc(Nc2ncnc3sccc23)c1`, for which the AC50 was > 42 µM (inactive).

Regarding `O=S(=O)(NCc1ccco1)c1ccc2ccccc2c1`, the AC50 is > 42 µM (inactive).

As for `CCOP(=O)(OCC)c1cc(CC)ccc1O`, the AC50 was > 42 µM (inactive).

With `Cc1ccccc1C(=O)NNC(=O)/C=C\C(=O)O`, the AC50 was > 42 µM (inactive).

As for `Cc1ccccc1C(=O)NN(C)c1nc2ccccc2nc1C(F)(F)F`, the AC50 was > 42 µM (inactive).

Regarding `COc1ccc(/C=C(/C#N)S(=O)(=O)c2ccc(C)cc2)cc1`, the AC50 was > 21 µM (inactive).

For `C(=N\Nc1ccc2nncn2n1)/c1ccccn1`, the AC50 was > 42 µM (inactive).

For the molecule `C=C(C)Cc1c(C)c(C#N)c2[nH]c3ccccc3n2c1=O`, the AC50 is > 42 µM (inactive).

Take `COC(=O)[C@@H]1[C@@H](C(=O)OC)C2(c3ccccc3-c3ccccc32)N(c2ccc(Cl)cc2)N1C#N`: the AC50 was > 42 µM (inactive).

For the molecule `COc1ccc(N2C(=O)CCC(C(=O)NCc3cccnc3)C2c2ccc(OC)c(OC)c2)cc1` (centres undefined), the AC50 is > 42 µM (inactive).

For `COCC(C)n1c(SCC(=O)NNC(=O)c2ccccc2)nc2ccccc2c1=O` (centres undefined), the AC50 was > 42 µM (inactive).

With `CCn1c(N2CCN(C(=O)C34CC5CC(CC(C5)C3)C4)CC2)nc2ccccc21`, the AC50 is > 42 µM (inactive).

In the case of `Cc1ccccc1NC(=O)c1ccccc1NC(=O)c1ccco1`, the AC50 was > 42 µM (inactive).

Regarding `O=c1[nH]c(CN2CCN(CCO)CC2)nc2ccccc12`, the AC50 was > 42 µM (inactive).

As for `CC1(OC(=O)CCc2ccccc2)C(=O)C=C2C=C(c3ccc(C#N)cc3)N(CC3CC3)C=C2C1=O` (centres undefined), the AC50 was > 42 µM (inactive).

Turning to `CC(=O)N1CCCc2cc(S(=O)(=O)Nc3ccc(C)cc3C)ccc21`, the AC50 was > 42 µM (inactive).

As for `CC(C)c1cccc(OCCCCN(C)C)c1`, the AC50 was > 42 µM (inactive).
